Data: patent US8530456B2, “Sonic hedgehog modulators” (President and Fellows of Harvard College, priority 2008, dated 2013)
“Also recorded” adds a separate entry of the source.

Key:
ShhN protein (rmShh) = molecular target: T1, ShhN protein (rmShh) (Mus musculus, UniProt Q62226); test: Small molecule microarray (SMM) screen for ShhN binding; conditions: screened in triplicate
T1 construct: Recombinant mouse amino-terminal peptide 461-CF (rmShh); purchased R & D Systems 461-CF
Procedure: A screen of the ShhN protein was performed using small molecule microarrays (SMMs) containing a collection of approximately 10,000 diversity-oriented synthesis (DOS) compounds and natural products that has been reported by Koehler and co-workers, in which the entire library was arrayed on a single microscope slide (Bradner, J. E. et al. Chem. Biol. 13, 493-504, 2006). Three SMM slides were used to screen for small molecules that bind the ShhN protein, while two slides were designated as protein-free negative controls. Binding was detected by the use of a biotinylated anti-ShhN antibody, followed by incubation with streptavidin alexa 647. The treated slides were then scanned with a microarray plate reader. The duplicate negative controls eliminated many false positives, while screening in triplicate increased the accuracy of the results. Microarray image analysis was performed with GenePix Pro software (Molecular Devices, Sunnyvale Calif.). […] The software was then used to select all remaining possible positives in the ShhN-treated slides that exceeded our criteria for fluorescence intensity threshold. […]
The three experimental SMM slides were incubated on parafilm (Alcon, Menasha Wis.) with 300 μL of a 25 μg/mL rmShh solution in a 0.1% BSA in PBS buffer. […] Slides were dried by centrifugation and scanned with a GenePix 4000B microarray plate reader (Axon Instruments, Sunnyvale Calif.). […]

[1] = molecular target: ShhN (N-terminal fragment of Sonic Hedgehog protein) (Homo sapiens, UniProt Q15465); test: Surface plasmon resonance (SPR) binding to immobilized purified ShhN; conditions: for ShhN binding in SPR: 0.78-25 μM compound
Chain of ShhN (N-terminal fragment of Sonic Hedgehog protein) (Q15465 24-197): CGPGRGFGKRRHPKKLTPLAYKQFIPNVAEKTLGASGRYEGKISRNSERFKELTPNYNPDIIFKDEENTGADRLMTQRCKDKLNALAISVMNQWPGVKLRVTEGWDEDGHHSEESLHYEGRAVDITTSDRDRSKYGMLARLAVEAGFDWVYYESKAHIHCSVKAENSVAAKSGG
Procedure: Biacore™ T100 (GE Healthcare, Uppsala, Sweden) was used to perform the experiments reported herein. Sensor surface preparation and interaction analyses experiments were performed at 25° C. Prior to surface preparation, lyophilized ShhN protein (R&D Systems) was dissolved in either water or PBS buffer, at pH 7.4 and protein purity determined by Nu-Page 4-12% Bis-Tris gel in MOPS buffer with a silver stain sensor preparation.
ShhN was immobilized onto series S sensor chip CM4 via a standard N-ethyl-N′-(dimethylaminopropyl)carbodiimide/N-hydroxysuccinimide (EDC/NHS) amine coupling procedures (Biacore Sensor Surface Handbook, 2003, version AA, Biacore, Uppsala, Sweden). Shh was diluted to 10 μg/mL in 10 mM sodium acetate pH 5.5 for these procedures and resultant immobilization levels were 1000-1200 R.U.s. Control surfaces were prepared similarly without protein derivatization and utilized as a reference surfaces for compound binding experiments.
For compound interaction analyses, 0.01 M Hepes, pH 7.4, 0.15 M NaCl, 0.05% Surfactant P20 and 5% DMSO was used for both running and sample buffers. Compound samples were prepared by serial dilution in the range 0.78 uM-25 uM and flowed over control and derivatized surfaces for two minutes at a flow-rate of 80 μL/min. Zero concentration blank buffer cycles were included as negative control samples. Solvent correction procedures were included to compensate for any DMSO related bulk refractive index variations and performed as described previously (Karlsson, R. et al. Anal. Biochem. 278, 1-13, 2000). Non-specific binding effects to sensor surface CM4 were absent for all analyses reported.
Data analysis was carried out using Biacore T100 evaluation software v1.1.1. Data were prepared by subtraction of reference surface data and blank buffer sample data, a procedure commonly referred to as ‘double referencing’ (Myszka, D. G. J. Mol. Recognit. 12, 1-6, 1999). Solvent correction was then applied as described previously.

[2] = system: Ptc1-/- MEF cell line (Gli1-beta-galactosidase reporter); test: Ptc1-/- cell line beta-galactosidase reporter assay; format: cell-based, mouse
Procedure: To explore further the potential mechanism of Shh pathway inhibition involving direct perturbation of the ShhN protein complex, the same compounds were tested in a Ptc1^−/− cell line derived from mouse embryos lacking Ptc1 function. The cell line had both Ptc1 alleles replaced with a β-galoctosidase (β-gal) reporter (Surajit et al., supra). Because Ptc1 inhibits Hh pathway activation by repressing Smo function, removing both Ptc1 alleles results in constitutive pathway activation.
The ptc−/− cell line was derived from an embryonic mouse fibroblast cell line transfected with a β-galactosidase construct. The cell line was cultured in DMEM with 10% FBS until confluent, and then cells were plated 1:5 into white 96-well optical-bottom plates and allowed to reach a confluent state over 3-4 days while incubating at 37° C. After reaching confluency, the medium was removed from each well, and the cells were treated with test compound (for example, robotnikinin or cyclopamine) (EMD Biosciences, San Diego, Calif.) in DMEM with 0.5% FBS. After a 30 hour incubation, the wells were treated with Beta-Glo assay reagent (Promega, Madison, Wis.) and allowed to be gently agitated for 30 minutes at room temperature. After the agitation was complete, plates were read with an Envision Multi-Label Reader 2102 luminometer.

[3] = system: Gli1 (Gli-dependent firefly luciferase reporter, ShhL2 cell line); test: ShhL2 (Shh-LIGHT2) Gli-luciferase reporter assay; format: cell-based
Procedure: We examined the activity of the new series of AML compounds in Shh-LIGHT2 cells (ATCC, Manassas Va.) (Tapaile, J., et al., 2000 supra), which is an NIH3T3 cell line with a Gli-dependent firefly luciferase reporter.
Therefore, compounds that repress Gli1 activity would be putative inhibitors of Shh signaling in the cell line in which the experiments were carried out. We examined the activity of the new series of AML compounds in the Shh Light II cell line, or ShhL2 line (ATCC, Manassas Va.) (Tapaile, J., et al., 2000 supra), which is an NIH3T3 line transformed with a Gli-luciferase construct along with zeocin and G418 resistance vectors to select for the transformed strains during normal culturing.
(§1) ShhL2 cells are NIHT3 cells that have been transfected with a Gli-luciferase construct, as previously reported (Tapaile, et al. 2000; Surajit, et al., supra). ShhL2 cells (ATCC, Manassas, Va.) were cultured with DMEM (GIBCO, Carlsbad, Calif.), 10% Calf Bovine Serum (ATCC Manassas, Va.), 0.4 mg/ml G-418 (ATCC, Manassas, Va.), 0.15 mg/ml Zeocin (Invitrogen, Carlsbad Calif., Cat. No. R25001) at 37° C. When confluent, the cells were plated 1:5 into white 96-well optical-bottom plates and allowed to reach confluence over approximately 5-7 days. When confluent, the medium was removed and the ShhL2 cells were treated with test compound (for example, robotnikinin or cyclopamine) (EMD Biosciences, San Diego, Calif.) in DMEM with 0.5% Calf Bovine Serum. After incubation for 30 hours, each well was treated with 100 μL of Bright-Glo luciferase assay reagent (Promega, Madison, Wis.) and the plate was read with an Envision Multi-Label Reader 2102 luminometer (Perkin Elmer, Waltham, Mass.). Wells treated in identical fashion were then treated with Cell Titer-Glo reagent (Promega, Madison, Wis.) and read with an Envision Multi-Label Reader 2102 luminometer after being allowed to stand 10 minutes at room temperature.

Gli1 mRNA = Gli1 mRNA by qPCR in primary human keratinocytes; format: cell-based
Text: (§2) Culturing of primary human keratinocytes was previously described (Nguyen, B. C., et al., Genes & Dev. 20:1028-1042 (2006)). The full thickness skin model, EpiDermFT System (MatTek, Ashland), consists of normal, human-derived epidermal keratinocytes and normal, human-derived dermal fibroblasts which have been cultured to form a multilayered, highly differentiated model of the human dermis and epidermis.
(§3) Gene expression was compared by quantifying mRNA levels by real time RT-PCR. For this, total RNA preparations (1 μg) were used in a reverse transcriptase reaction with a mix of oligonucleotide dT and random hexamer primers, followed by real time PCR with gene-specific primers (Gli1: Qiagen Quantitect PrimerAssay QT00060501; Gli2: Qiagen Quantitect PrimerAssay QT00018648), using an Icycler IQTM real time detection system (Bio-Rad) according to the manufacturer's recommendation, with SYBR Green (Bio-Rad) for detection. Each sample was tested in triplicate, and the results were normalized by real time PCR of the same cDNA with 36B4 primers (36B4 forward primer: 5′-GCAATGTTGCCAGTGTCTGT 3; reverse primer, 5′-GCCTTGACCTTTTCAGCAAG-3′).

[4] = system: Gli1 and Gli2 transcripts; test: Synthetic skin (primary human keratinocytes on collagen matrix): qPCR and histology; format: cell-based
Text: as §2, §3

ShhL2 cells = test: Cell Titer Glo cell viability assay run in parallel in ShhL2 cells; format: cell-based
Procedure: as §1

hair regrowth = test: Topical application after depilation, hair regrowth in mice; format: in vivo, mouse
Procedure: Eight-week-old C57BL/6J female mice were purchased from Charles River (Boston, Mass.). Mice were housed in community cages at the animal facilities of the Massachusetts General Hospital. All mice were fed water and murine chow ad libitum and kept under 12 h light/dark cycles. Active hair growth (anagen) was induced in the back skin during the telogen phase of the hair cycle by application of the wax-rosin mixture with subsequent depilation, as described before (Paus, R., Stenn, K. S., Link, R. E. (1990). Br. J. Dermatol. 122, 777-784).
Robotnokinin was dissolved in 10% DMSO and applied every day topically on the depilated skin surface. Mice were kept in individual cages to avoid scratching. Telogen-anagen transformation was studied at the following time points: telogen (unmanipulated skin), anagen (day 8 postdepilation) and very late anagen (day 12 postdepilation) (see FIG. 8a, top panels). In all experiments, the neck region of back skin was harvested parallel to the vertebral line for either heat-mediated epidermal separation and subsequent real time RT-PCR analysis for Gli1 and Gli2 expression levels or embedded for histology on frozen sections (see FIG. 8a, bottom panel, and FIG. 8b).

Gli2 mRNA = Gli2 mRNA by qPCR in primary human keratinocytes; format: cell-based
Text: as §2, §3

T1 sequence (Q62226 25-198 limits assumed): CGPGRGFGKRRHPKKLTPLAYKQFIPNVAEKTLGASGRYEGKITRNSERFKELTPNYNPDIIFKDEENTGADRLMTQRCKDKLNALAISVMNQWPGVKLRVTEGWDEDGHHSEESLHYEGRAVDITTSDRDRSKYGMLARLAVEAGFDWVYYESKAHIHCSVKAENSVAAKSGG

## CC1CNC(=O)C(CC(=O)N(CCO)Cc2ccccc2)CC=CCCC(N)C(=O)O1 (centres unmarked) [AML1]
ShhN protein (rmShh)
  SMM screen result: assay positives
[1]
  ShhN binding in SPR: binding to ShhN in a concentration-dependant fashion

## CC1COC(=O)C(N)CCC=CCC(CC(=O)N(CCO)Cc2ccccc2)C(=O)N1 (centres unmarked) [AML2]
ShhN protein (rmShh)
  SMM screen result: assay positives
[1]
  ShhN binding in SPR: binding to ShhN in a concentration-dependant fashion

## CC1=C2C[C@H]3[C@@H](CC=C4C[C@@H](O)CC[C@@]43C)[C@@H]2CC[C@]12O[C@@H]1C[C@H](C)CN[C@H]1[C@H]2C [cyclopamine, reference compound]
[2]; 6.6 μM cyclopamine
  pathway inhibition in Ptc1-/- cell line: significant pathway inhibition

## O=C(C[C@@H]1C/C=C/CCC(=O)O[C@H](c2ccccc2)CNC1=O)NCc1ccc(Cl)cc1 [robotnikinin, N-(4-chlorobenzyl)-2-((2R,6S,E)-5,12-dioxo-2-phenyl-1-oxa-4-azacyclododec-8-en-6-yl)acetamide]
[3]; Shh Light2, ShhL2 cell line, Bright Glo luciferase, approximations based on concentration curves
  EC50: ~4 µM
[3]; Shh-LIGHT2 cells
  concentration giving inhibition comparable to 6.25 μM cyclopamine: above 30 μM
[3]; Shh-LIGHT2 cells, ShhN-conditioned medium plus 3.6 μM purmorphamine
  inhibition with co-administered purmorphamine: virtually all of the inhibitory effect was eliminated; also recorded: negligible inhibition
[3]; ShhL2 cell line, concentration of maximal effect
  Gli1 ECmax: 62.5 µM
[3]; ShhN-conditioned medium, 30 h incubation
  Shh pathway inhibition / Gli1 suppression: concentration-dependent inhibition of ShhN-induced pathway activation; also recorded: strong concentration dependent Gli1 suppression
[3]; may be taken relative to mock treatment (comparable to 6 μM cyclopamine), cytotoxic compounds: at highest effective non-cytotoxic concentration
  % CI (% cyclopamine inhibition), footnote d: 91%
Gli1 mRNA; primary human keratinocytes
  effect on Gli1/Gli2 mRNA with co-administered Smo agonists purmorphamine and SAG: this effect is blocked
Gli1 mRNA; qPCR, normalized for cell titer
  endogenous Gli1 mRNA level: lowers levels
[4]
  histology of treated synthetic skin: histologically normal
[4]; qPCR after incubation
  Gli1 and Gli2 mRNA levels in synthetic skin: reduced levels of Gli1 and Gli2 mRNA
[1]
  ShhN binding in SPR: ShhN-binding capacity at concentrations between 1.56 μM and 25 μM; also recorded: concentration-dependent binding to purified ShhN
[1]; compared with AML1 and AML2
  dissociation time in SPR: longer dissociation time than AML1 and AML2
[2]; 30 h, any concentration tested, normalized for cell titer
  pathway inhibition in Ptc1-/- cell line: no pathway inhibition was observed; also recorded: pathway inhibition was not observed
ShhL2 cells; Cell Titer Glo, ShhL2 cells, concentration above which cytotoxic
  cytotoxicity: none
ShhL2 cells; cell titer viability assay
  cytotoxicity: No significant cytotoxicity was observed
Hair regrowth; 12 days post depilation
  hair follicles in skin cross sections: lack of hair follicles
Hair regrowth; topical, daily, 8 and 12 days post depilation, C57BL/6J mice
  hair regrowth: blocked hair regrowth
Gli2 mRNA
  endogenous Gli2 mRNA level: lowers levels; also recorded: lower levels of endogenous Gli2 mRNA
